Results from patent US20230226066A1, “COMPOUNDS FOR THE TREATMENT OF VIRAL INFECTIONS” (MERCK PATENT GMBH, priority 2020, published 2023).

What was measured:
Format in all cases: cell-based
SARS-CoV2/ZG/297-20 = conditions: MOI 0.05; 120 hours observation; Compound 1 at 1-81 μM, Compound 2 at 9-81 μM; compared to uninfected and infected control cells; FIGS. 1 and 2
[1] = Cytotoxic effect on Vero cells, assessed in parallel; conditions: African green monkey, FIG. 5, read-out: half maximal cytotoxic concentration (CC50), viability of Vero cells
Procedure: (§1) The antiviral effect of Compounds is evaluated against Dengue virus serotype 2 (DENV-2) using cytopathic effect (CPE) inhibition assay. Cytotoxic effect was assessed in parallel.
(§2) Five-fold serial dilutions of Compound 2 were prepared at a starting concentration of 50 μM and added in triplicate to 1.00E+04 Vero cells seeded in conical 96-well plates one day prior and incubated at 37° C. and 5% CO2 for one-hour. During the incubation time, viruses were thawed and inoculum prepared in infection medium. Stock and inoculum were maintained in wet ice at all time. Virus was then added to the Compound 2 dilutions/cells (1:1) and plates were incubated at 37° C. and 5% CO2 for 3-5 days.

[2] = system: Dengue virus serotype 2 (DENV-2); assay: Antiviral testing against Dengue virus serotype 2 in Vero cells (CPE inhibition assay, immunostaining); conditions: DENV2, Vero, read-out: half maximal effective concentration (EC50), viral replication
Procedure: as §1, §2
Cells were immunostained. Then, medium was removed, cells were washed with PBS, fixed with cold 80%/20% (v/v) ethanol/methanol and incubated at −20° C. for 20 minutes. After removal of fixative the plates were air-dried, washed and stained with specific Ab #1, washed and stained with Ab #2-HRP conjugated. Then, cells were washed, 3,3′,5,5′-tetramethylbenzidine (TMB) substrate was added followed by addition of stop solution. The supernatant was transferred to a clean plate and signal read at 450 nm.

Row | Compound | confluence of Calu-3 cells infected with SARS-CoV-2 (SARS-CoV2/ZG/297-20) | CC50 [1] [µM] | EC50 [2] [µM]
1 | Nc1nn2cc(F)cnc2c1C(=O)Nc1cncc(F)c1N1CCC(C(=O)N2CCN(C3COC3)CC2)CC1 [Compound 1, 2-Amino-6-fluoro-pyrazolo[1,5-a]pyrimidine-3-carboxylic acid [5′-fluoro-4-(4-oxetan-3-yl-piperazine-1-carbonyl)-3,4,5,6-tetrahydro-2H-[1,4′]bipyridinyl-3′-yl]-amide] | significant improvement of the confluence of the cells | – | –
2 | Cn1cncc1-c1c(F)cncc1NC(=O)c1c(N)nn2cc(F)cnc12 [Compound 2, 2-Amino-6-fluoro-N-[5-fluoro-4-(1-methyl-1H-imidazol-5-yl)pyridin-3-yl]pyrazolo [1,5-a]pyrimidine-3-carboxamide] | significant improvement of the confluence of the cells | 6.8 | 0.46
